Experimental data from patent publication US7910723B2, “IG20 splice variants therapeutics for cancer” (The Board of Trustees of the University of Illinois, priority 2006, dated 2011).

Experiments:
Assay type in all cases: cell-based
IG20-SVs = assay: Screening of shRNAs: knock-down of exogenous IG20-SV-YFP expression in 293T cells (flow cytometry)
Method: In order to determine which of the IG20-SVs contribute to apoptosis and cell proliferation, siRNA (small inhibitory RNA) approach was used to selectively knockdown IG20-SVs (Table 1). The siRNAs were cloned into the pSUPER vector to allow for expression of shRNAs (small hairpin RNAs). 293T cells were co-transfected with YFPIG20pa, YFP-MADD or YFP-DENN-SV along with different shRNA-expressing pSUPER vectors at ratios of 1:1, 1:3 and 1:7. Knock-down of protein expression was assessed by a reduction in YFP expression using flow cytometry. Several shRNAs were screened. Knock-down of expression of exogenous IG20-SVs were analyzed. 293T cells were plated onto 12-well plates and cotransfected with the indicated IG20-SV-YFP and pSUPER-shRNA constructs. YFP expression was represented as Mean Fluorescence Intensity. Specificity of Mid-shRNA was analyzed. The inability of Mid-shRNA to suppress the expression of mutant-IG20pa, -MADD, and -DENN-SV constructs was analyzed. […] Vector alone or a control shRNA had little or no effect on the expression of IG20-SVs. The sequences provided in Table 1 are exemplary and other sequences that specifically target MADD or any other isoform can be designed by those of skill in the art based on the information given in Table 1 and the disclosure in general.
To further confirm specificity of Mid-shRNA, silent mutations were created in cDNAs encoding IG20-SVs at sites corresponding to the 5th, 7th, 11th and 14th nucleotides of the Mid-shRNA. These mutations neither affected the amino acid sequence nor protein expression. Mutant-IG20-SV constructs were cotransfected with the pSUPER-shRNA and assessed for their expression. […] FIG. 18 is a schematic illustration of the targets of some of the shRNAs used to knock-down specific IG20 splice variants (isoforms). FIG. 11 provides schematic illustration of screening for shRNAs (A) and lentivirus production that contain the shRNA expressing vectors (B). Fluorescence values were measured from cells transfected with the respective shRNAs (FIG. 12).
Screening of shRNAs. IG20-YFP constructs were co-transfected with different pSUPER-shRNA constructs in different ratios (1:1, 1:3, 1:7) into 293T cells using Calcium phosphate. 24 hours post-transduction, cells were trypsinized, collected and washed twice in cold PBS, and analyzed for YFP expression by flow cytometry using a FACS Calibur (Becton Dickinson, N.J.).

HeLa cells = assay: Cell growth: trypan blue-negative viable cell count, HeLa; details: relative to controls
Method: Cell Growth. 24 hours post-transduction, HeLa cells were plated as described in materials and methods. Cells were then harvested and viable cells (trypan blue negative cells) were counted on indicated days. Data represent Mean+SD of triplicates. Cell proliferation. 24 hours post-transduction HeLa cells were stained with CF SE-red (SNARF-1 carboxylic acid, acetate, succinimidyl ester), harvested on indicated days and evaluated for CFSE-dilution by FACS. The numbers on the histograms indicate geometric peak mean intensities of CFSE staining in the transduced cells. Cell survival. Crystal violet staining of cells surviving upon IG20 down-modulation after transduction shown C-G.
In order to assess the effects on cell growth and proliferation, various shRNA-expressing viable cells were counted. […] The cells were stained with CFSE and cell division was monitored. […] Further confirmation was obtained by plating equal numbers of HeLa cells expressing various shRNAs and determining the number and size of colonies after 12 days.
Cell Proliferation. 24 hours post-transduction, 5×10^5 HeLa or 8×10^5 PA-1 cells were plated into six-well plates. Every other day, cells were collected, washed and stained with trypan blue, and trypan blue-negative viable cells were counted.

14-3-3 = assay: Association of wtMADD with 14-3-3 in HEK293 cells (immunoprecipitation); details: LY 10 μM 1 h
Method: (A) Cellular distributions of wtMADD and MADD3A. HEK293 cells were transfected with wtMADD or MADD3A. 36 h after transfection, the cells were harvested and membrane andcytosolic fractions were prepared. Immunoblotting was performed using an anti-YFP antibody. Actin and caveolin-1 were used as loading controls. (B) […]. HEK293 cells were transfected with wtMADD or MADD3A. 36 h after transfection, the cells were harvested for immunoprecipitation using an anti-14-3-3 antibody followed by immunoblotting using an anti-YFP antibody for detecting exogenous MADD. The membrane was reprobed with an anti-14-3-3 antibody to show protein loading. (C) Inhibition of PI3K can lead to the association of wtMADD with 14-3-3. HEK293 cells were transfected with wtMADD. Cells were serum starved for 20 h and treated with LY (10 μM) for 1 h. Immunoprecipitation was performed using an anti-14-3-3 antibody, followed by immunoblotting using an anti-YFP or an anti-14-3-3 antibody. (D) Inhibition of Akt can result in the association of wtMADD with 14-3-3. HEK293 cells were co-transfected with wtMADD along with DN-Akt or pcDNA. […]
To explore the molecular mechanism by which nonphosphorylated MADD can trigger apoptosis, the cellular localization of phosphorylated and nonphosphorylated MADD was determined. […]
Immunoprecipitation. […] Immunoblots were prepared and analysed as described above.

Compound	Effect on IG20-SVs devoid of the targeted exon (specificity) (IG20-SVs)	Knock-down of expression of exogenous IG20-SVs (YFP expression, Mean Fluorescence Intensity) (IG20-SVs; 293T cells cotransfected with IG20-SV-YFP and pSUPER-shRNA, ratios 1:1, 1:3, 1:7)	Numbers of viable cells (HeLa cells)	Binding of WtMADD to 14-3-3 (14-3-3)
13L-shRNA: shRNA targeting exon 13L (IG20, MADD), 5′ CGGCGAATCTATGACAATC-3′ (SEQ ID NO: 4)	little or no effect on IG20-SVs devoid of the targeted exon	down-modulated IG20pa/MADD, leaving the expression of IG20-SV2 and DENN-SV unaltered	significant decrease in the numbers of viable cells	
O=c1cc(N2CCOCC2)oc2c(-c3ccccc3)cccc12 [LY]				able to bind to 14-3-3 only in the presence of LY
